Settings: for log10 BCF / log10 biotransformation half-life (days): fish

COP(=S)(OC)Oc1c(Cl)cc(C)cc1Cl
log10 Koc (L/kg): 3.7
log10 vapour pressure (mmHg): -3.37
melting point: 79 °C
log10 BCF: 2.86
log10 biotransformation half-life (days): -0.11

COc1ccc2c3c1O[C@H]1[C@@H](O)C=C[C@H]4[C@@H](C2)[N@@+](C)([O-])CC[C@@]341
melting point: 232 °C

O=C1c2ccc(O)cc2OC(c2ccc(O)c(O)c2)C1O (centres undefined)
melting point: 227 °C

CCOc1ccc(Cl)cc1Cl
boiling point: 237 °C
melting point: 32 °C

Clc1cccc(-c2c(Cl)ccc(Cl)c2Cl)c1Cl
log10 Koa: 8.8

Cc1c(Br)cc(Br)cc1Br
boiling point: 290 °C
melting point: 70 °C

O=C(O)c1ccco1
boiling point: 231 °C
melting point: 134 °C

O=S1CCC1
melting point: 31.5 °C

COc1cc(C(=O)O)cc(OC)c1O
melting point: 208 °C
ready biodegradability: readily biodegradable

Nc1ccc2c(n1)[nH]c1ccccc12
melting point: 202 °C

CCOc1ccc2cc(O)c(O)cc2c1
melting point: 132 °C

CCCOC(=O)CCl
boiling point: 161 °C

CCCC(CC)C1(CC)C(=O)NC(=O)NC1=O (centres undefined)
melting point: 122 °C

NS(=O)(=O)c1cc2c(cc1Cl)NCNS2(=O)=O
melting point: 274 °C

C=Cc1ccc(Br)cc1
boiling point: 212 °C
log10 vapour pressure (mmHg): -0.108
melting point: 7.7 °C

CCCCC(C)Br (centres undefined)
boiling point: 144 °C
log10 vapour pressure (mmHg): 0.86

CCOc1cccc(-c2ccccc2)c1
boiling point: 305 °C
melting point: 35 °C

O=S(=O)(O)CCN1CCN(CCS(=O)(=O)O)CC1
ready biodegradability: not readily biodegradable

CCCC(C)(C)CCC
boiling point: 135 °C

Clc1ccc(OCOc2ccc(Cl)cc2)cc1
melting point: 70.5 °C

COC(=O)c1ccc(C)cc1O
boiling point: 243 °C
melting point: 27.5 °C

O=C(c1ccc(O)c(O)c1)c1c(O)cc(O)cc1O
melting point: 222 °C

COP(=S)(OC)Oc1ccc([N+](=O)[O-])cc1
log10 Henry constant (atm·m³/mol): -7
log10 Koc (L/kg): 3
log10 vapour pressure (mmHg): -5.46
melting point: 35.5 °C
log10 BCF: 1.93
log10 biotransformation half-life (days): 0.55

CN(CC(=O)N1CCOCC1)Cc1c(Cl)cccc1NC(=O)c1ccccc1
melting point: 123 °C

COc1cc(OC)nc(NC(=O)NS(=O)(=O)c2ncccc2C(F)(F)F)n1
melting point: 180 °C

NS(=O)(=O)c1cc2c(cc1C(F)(F)F)NCNS2(=O)=O
melting point: 270 °C

CCCCCCCCCCCCCCCCC=O
melting point: 36 °C

CCOP(=S)(OCC)SCn1nnc2ccccc2c1=O
melting point: 53 °C

CCSC(C)=O
boiling point: 116 °C

BrC[C@@H]1CCCO1
boiling point: 170 °C

CCOc1ccc(C=O)cc1
boiling point: 249 °C
melting point: 13.5 °C

CCCCCCCCCCC(C)O (centres undefined)
boiling point: 252 °C
melting point: 19 °C

CC(Cl)CCl (centres undefined)
boiling point: 95.5 °C
log10 Henry constant (atm·m³/mol): -2.55
log10 Koa: 2.96
log10 Koc (L/kg): 1.67
log10 vapour pressure (mmHg): 1.73
melting point: -100 °C
ready biodegradability: not readily biodegradable
log10 BCF: 0.85
log10 biotransformation half-life (days): -1.06

C=COC(=O)C=C
boiling point: 91 °C

CC[C@@H](N)CO
boiling point: 178 °C
melting point: -2 °C

CC(C)CCC(C)(C)O
boiling point: 154 °C

CC(C)(c1cc(Br)c(OCC(Br)CBr)c(Br)c1)c1cc(Br)c(OCC(Br)CBr)c(Br)c1 (centres undefined)
ready biodegradability: not readily biodegradable

COc1ccc(N)cc1N
boiling point: 221 °C
melting point: 67.5 °C

CC(C)Nc1nc(N)nc(Cl)n1
melting point: 133 °C

COC(=O)[C@@H]1[C@H]2C[C@H]3c4[nH]c5ccccc5c4CCN3C[C@@H]2CC[C@@H]1O
melting point: 251 °C

CC1CCCCCC1
boiling point: 134 °C

CC1=CCCC(C)(C)C1CO (centres undefined)
boiling point: 215 °C

ICCCCCI
melting point: 9 °C

COc1ccc(C=O)c2ccccc12
melting point: 34.8 °C

CCCCCCCCCCCCCCCC(=O)OC/C=C(C)/C=C/C=C(C)/C=C/C1=C(C)CCCC1(C)C
melting point: 28.5 °C

CCCC(=O)OC1CCCCC1
boiling point: 213 °C

O=C(O)c1ccc(O)cc1
log10 Koa: 8.08
log10 Koc (L/kg): 1.43
log10 vapour pressure (mmHg): -6.72
melting point: 214 °C
ready biodegradability: readily biodegradable

CCCCCCCCCCCC(=O)OCCOCCO
melting point: 17.5 °C

O=[N+]([O-])c1ccc2c(c1)Cc1ccccc1-2
melting point: 157 °C

O=C(O)c1cccc([N+](=O)[O-])c1Cl
melting point: 184 °C

Oc1c(Cl)c(O)c(Cl)c(O)c1Cl
melting point: 136 °C

CCOP(=O)(OCC)OCC
boiling point: 216 °C
log10 Henry constant (atm·m³/mol): -7.44
log10 vapour pressure (mmHg): -0.406
melting point: -56.4 °C
ready biodegradability: not readily biodegradable
log10 BCF: 0.11
log10 biotransformation half-life (days): -1.09

FC(F)(F)C(F)(F)C(F)(F)C(F)(F)C(F)(F)C(F)(F)C(F)(F)Br
boiling point: 118 °C

O=C(O)C=Cc1ccccc1F
melting point: 179 °C

CC[Si](Cl)(Cl)CC
melting point: -96.5 °C

CCC(C)O[N+](=O)[O-] (centres undefined)
boiling point: 124 °C

O=S(=O)(F)c1ccccc1
boiling point: 204 °C

CN(O)CCO
ready biodegradability: readily biodegradable

CC1(C)CCCC(=O)C1
boiling point: 180 °C

Clc1cncc(Cl)c1
melting point: 66 °C

Cc1cc(OC(=O)N(C)C)n(C(C)C)n1
log10 vapour pressure (mmHg): -3

CCOc1c(N2CCOCC2)cnn(C)c1=O
melting point: 90 °C

Cc1cc(O)c(C)c(O)c1
boiling point: 278 °C
melting point: 163 °C
